From patent US20200338045A1, “ISOINDOLINE COMPOSITIONS AND METHODS FOR TREATING NEURODEGENERATIVE DISEASE” (priority 2017, published 2020)
Entries after “also recorded” stand apart in the source; their conditions may differ. Like-named read-outs stand apart in the source and are kept apart here. Marks after values point to notes of the source that are not given here.

Experiments:
[1] = COG0102 pharmacokinetics: plasma and CSF concentrations, estimated brain receptor occupancy; format: in vivo, human; settings: 90-560 mg
Description: This trial (ClinicalTrials.gov NCT02907567) was a randomized, double-blind, placebo-controlled clinical trial in mild to moderate Alzheimer's patients (MMSE 18-26) (See FIG. 1 for clinical trial design). The trial was conducted at six sites in Australia. Patients were randomized into placebo (n=5) or CT1812-treated groups: 90 mg (n=4), 280 mg (n=5) or 560 mg (n=5) and treated once daily for 28 days. Clinical chemistry was done at Sydpath (Sydney, AU). Pharmacokinetics were done at CPR Pharma Services (Adelaide, AU). Cerebrospinal fluid samples were taken at screening and day 21-28 of treatment and aliquoted. […] One set of CSF samples was analyzed for Alzheimer's disease biomarkers; protein measurements (Aβ42, A1340, total tau, tau phosphorylated at threonine 181 (phosphorylated tau), NFL and neurogranin) were performed using commercially available ELISA assays from Fujirebio according to the manufacturer's instructions (INNOTEST β-AMYLOID(1-42), INNOTEST β-AMYLOID(1-40), INNOTEST hTau Ag, INNOTEST PHOSPHO-TAU(181P), Uman Diagnostics NFL assay). Neurogranin was measured with a sandwich ELISA method using antibodies Ng2 and Ng22 developed at the University of Gotteborg (Kvartsberg et al. 2015). Identical aliquots of CSF, and plasma were analyzed for protein expression changes via LC/MSMS at Caprion (see below).

[2] = Phase 1 multiple ascending dose (MAD) plasma pharmacokinetics; format: in vivo, human; settings: for Cmax / AUC(0-t) / Tmax / half-life: human, plasma, oral; for AUC(0-t): read-out: AUC0-24h (mean)
Description: In Part B, healthy young subjects in each cohort received the same dose once daily for 14 days after overnight fasting. Cohort dosing started at 280 mg, followed by 560 mg and 840 mg in subsequent cohorts. In each cohort, eight subjects received drug and two received placebo. A fourth cohort of healthy elderly subjects (≥65 years old) received a 560 mg dose vs. placebo daily for 14 days (seven active, two placebo).
In Part A, blood draws for assessment of PK parameters occurred pre-dose and at 15, 30, 45, 60, and 90 minutes post dose as well as at 2, 3, 4, 8, 12, 24, 36, and 48 hours post dose. […] In Part B, blood samples for plasma PK analysis were taken on Day 1 at pre-dose and at 2 hours post-dose, on Day 3 at pre-dose and at 15, 30 and 45 minutes and 1, 2, 3, 4, 8, 12 and 24 hours post-dose, on Days 4, 6, 8 and 10 at pre-dose and at 1.5 hours post-dose and following the final dose on Day 14 at pre-dose and 15, 30 and 45 minutes and 1, 2, 4, 8, 12, 24, 36 and 48 hours post-dose.
This was assessed by analysis of variance (ANOVA) of log-transformed Cmax, AUC0-24, AUC0-48, and/or AUC0-inf, using a model with factors for treatment (fed status or age [young vs. elderly] status) and subject within sequence. Treatment mean differences and 90% confidence intervals of the log transformed PK parameters were back-transformed, to present the geometric least squares means ratios and 90% confidence limits.

[3] = system: aged transgenic mouse models of AD; assay: Aged transgenic mouse models of AD (cognition, synapses, CSF proteins); format: in vivo
[4] = 560 mg daily, Day 14 (steady state)
[5] = 560 mg daily, day 3, geometric least-squares mean
[6] = 280 mg, 280 mg QD, Day 3, age up to 64 years (n = 8)
[7] = 280 mg, 280 mg QD, Day 14, age up to 64 years (n = 8)
[8] = 560 mg, 560 mg QD, Day 3, age at least 65 years (n = 7)
[9] = 560 mg, 560 mg QD, Day 3, age up to 64 years (n = 8)
[10] = 560 mg, 560 mg QD, Day 14, age at least 65 years (n = 7)
[11] = 560 mg, 560 mg QD, Day 14, age up to 64 years (n = 8)
[12] = 840 mg, 840 mg QD, Day 3, age up to 64 years (n = 7)
[13] = 840 mg, 840 mg QD, Day 14, age up to 64 years (n = 7)

SMILES: CC(C)(C)Oc1cc(CCC(C)(C)N2Cc3ccc(S(C)(=O)=O)cc3C2)ccc1O [CT1812]
- plasma CT1812 concentration vs dose ([1]; day 28): increased approximately dose proportionally
- CSF CT1812 concentration vs dose ([1]; days 22-30): dose dependent increase
- CLss/F (mean) ([2]; 280 mg QD, Day 14, age up to 64 years (n = 8), unit assumed): 387 L/h
- CLss/F (mean) ([2]; 560 mg QD, Day 14, age at least 65 years, n = 7): 169^‡‡
- CLss/F (mean) ([2]; 560 mg QD, Day 14, age up to 64 years (n = 8), unit assumed): 296 L/h
- AUC0-24h, aged cohort vs younger subjects [2, 4]: 1.5 times
- Cmax, aged cohort vs younger subjects [2, 4]: 1.6 times
- AUC0-24h, aged cohort vs subjects under 64 years [2, 5]: ~1.34 times
- Cmax, aged cohort vs subjects under 64 years [2, 5]: approximately 1.7 times
- CLss/F (mean) ([2]; 840 mg QD, Day 14, age up to 64 years, n = 7): 212^‡‡
- Cmax and AUC / plasma concentration vs dose ([2]; MAD 280 to 840 mg): slightly greater than dose proportionally
- accumulation with repeat dosing ([2]; Q.D. over 14 days): minimal accumulation
- Cmax [2, 6]: 238 ng/mL
- AUC(0-t) [2, 6]: 851 ng·h/mL
- Tmax ([2]; 280 mg, 280 mg QD, Day 3, age up to 64 years (n = 8), read-out: Tmax (median)): 1.5 h
- half-life ([2]; 280 mg, 280 mg QD, Day 3, age up to 64 years, n = 6, over max 24 hours post dose, read-out: t1/2 (mean) (converted)): 8.97 h
- Cmax [2, 7]: 431 ng/mL
- AUC(0-t) [2, 7]: 1060 ng·h/mL
- Tmax ([2]; 280 mg, 280 mg QD, Day 14, age up to 64 years (n = 8), read-out: Tmax (median)): 0.88 h
- half-life ([2]; 280 mg, 280 mg QD, Day 14, age up to 64 years (n = 8), read-out: t1/2 (mean) (converted)): 12 h
- Cmax [2, 8]: 567 ng/mL
- AUC(0-t) [2, 8]: 3330 ng·h/mL
- Tmax ([2]; 560 mg, 560 mg QD, Day 3, age at least 65 years (n = 7), read-out: Tmax (median)): 2 h
- half-life ([2]; 560 mg, 560 mg QD, Day 3, age at least 65 years, n = 4, over max 24 hours post dose, read-out: t1/2 (mean) (converted)): 8.83 h
- Cmax [2, 9]: 407 ng/mL
- AUC(0-t) [2, 9]: 1940 ng·h/mL
- Tmax ([2]; 560 mg, 560 mg QD, Day 3, age up to 64 years (n = 8), read-out: Tmax (median)): 2 h
- half-life ([2]; 560 mg, 560 mg QD, Day 3, age up to 64 years, n = 2, over max 24 hours post dose, read-out: t1/2 (mean) (converted)): 8.56 h
- Cmax [2, 10]: 853 ng/mL
- AUC(0-t) [2, 10]: 4450 ng·h/mL
- Tmax ([2]; 560 mg, 560 mg QD, Day 14, age at least 65 years (n = 7), read-out: Tmax (median)): 1 h
- half-life ([2]; 560 mg, 560 mg QD, Day 14, age at least 65 years (n = 7), read-out: t1/2 (mean) (converted)): 12.8 h
- Cmax [2, 11]: 651 ng/mL
- AUC(0-t) [2, 11]: 2810 ng·h/mL
- Tmax ([2]; 560 mg, 560 mg QD, Day 14, age up to 64 years (n = 8), read-out: Tmax (median)): 2 h
- half-life ([2]; 560 mg, 560 mg QD, Day 14, age up to 64 years (n = 8), read-out: t1/2 (mean) (converted)): 12.3 h
- Cmax [2, 12]: 813 ng/mL
- AUC(0-t) [2, 12]: 3610 ng·h/mL
- Tmax ([2]; 840 mg, 840 mg QD, Day 3, age up to 64 years (n = 7), read-out: Tmax (median)): 2 h
- half-life ([2]; 840 mg, 840 mg QD, Day 3, age up to 64 years, n = 5, over max 24 hours post dose, read-out: t1/2 (mean) (converted)): 9.39 h
- Cmax [2, 13]: 991 ng/mL
- AUC(0-t) [2, 13]: 4990 ng·h/mL
- Tmax ([2]; 840 mg, 840 mg QD, Day 14, age up to 64 years (n = 7), read-out: Tmax (median)): 2 h
- half-life ([2]; 840 mg, 840 mg QD, Day 14, age up to 64 years, n = 6, read-out: t1/2 (mean) (converted)): 8.93 h
- half-life ([2]; MAD, read-out: average terminal half-life at steady state (converted)): ~12 h
- Tmax ([2]; part B (MAD), 280-840 mg, read-out: Tmax in plasma, range over doses): 0.88 to 2 h
- cognitive performance / memory ([3]; aged transgenic mouse models of AD): restoring normal cognitive performance; also recorded: restores cognitive function; also recorded: restores memory to normal
- inflammatory protein expression in CSF ([3]; chronic treatment of aged transgenic mice, efficacious doses, LC/MSMS): significantly reduces
